# Measured values as given in patent publication US6251853A, “PTX sensitive G proteins, the production and use thereof” (priority 1996, dated 2001).
# What was measured:
# PTX-sensitive G proteins = test: mastoparan 7-stimulated [35S]GTPγS binding to isolated cell membranes from normotensives and hypertensives; assay type: biochemical, human
# Description: (§1) A detailed characterization was carried out of the activation of G proteins from cells of normotensive subjects and hypertensive patients. For this purpose, the stimulated incorporation of radiolabeled [^35 S] GTPγS was quantified by the method described by Wieland et al. (Wieland, T., Liedel, K., Xaldenberg-Stasch, S., Meyer zu Heringdorf, D., Schmidt, M., and Jakobs, K. E. Analysis of receptor-G protein interactions in permeabilized cells. Naunyn-Schmiedeberg's Arch.Pharmacol. 351:329-336,1995). G Proteins were activated initially by stimulating cells which had been permeabilized with digitonin using the peptide mastoparan 7. This peptide simulates the configuration of an activated G protein-coupled receptor so that it can be used to induce direct G protein activation independent of receptors (Ross, E. M. and Higashijima, T. Regulation of G protein activation by mastoparan and other cationic peptides. Methods Enzymol. 237:27-38, 1994). The binding of GTPγS induced by MAS-7 is completely PTX-sensitive so that it can be used to quantify the activation of heterotrimeric G proteins of the Gi type. […] MAS-7 induces strong [^35 S] GTPγS binding on HT cells with an EC50 of about 5 μm (FIG. 2). Maximum binding is reached at about 25 to 50 μm MAS-7. In contrast to this, the concentration required for the same [^35 S] GTPγS binding to NT cells are [sic] 10 times higher (FIG. 2).
# GTPγS to isolated cell membranes from normotensives and hypertensives. It is evident that the maximum stimulated binding of [^35 S] GTPγS to membranes from hypertensives occurs at lower concentrations of GDP (about 0.2 μmol/l), where a concentration of 1 μmol/l GDP is required for the same effect in normotensives.
# In a similar way, the maximum binding, stimulated by mastoparan 7, of [^35 S] GTPγS to membrane preparations from hypertensive cells a low concentration of free Mg^2+ (about 0.01 mmol/l), while a free Mg^2+ concentration of 0.1 mmol/l is necessary for the same maximum binding of [^35 S] GTPγS to membranes from normotensive cells (FIG. 5).
# [1] = test system: PTX-sensitive G proteins (heterotrimeric G proteins of the Gi type); test: mastoparan 7-stimulated [35S]GTPγS binding to digitonin-permeabilized cells from normotensives and hypertensives; assay type: cell-based, human
# Description: as §1
# GTPγS to cell lines from normotensives (NT) and hypertensives (HT).
# The binding of [^35 S] GTPγS to hypertensive cells is distinctly speeded up (rate constants 0.005 s^-1 in the normotensive versus 0.01 s^-1 in the hypertensive state).
compound,measurement,setting,value
[Mg+2] [Mg^2+],free Mg2+ concentration for maximum mastoparan 7-stimulated [35S]GTPγS binding,PTX-sensitive G proteins; membrane preparations from hypertensive cells,about 0.01 mmol/l
same,free Mg2+ concentration for maximum mastoparan 7-stimulated [35S]GTPγS binding,PTX-sensitive G proteins; membranes from normotensive cells,0.1 mmol/L
mastoparan 7 [MAS-7],EC50,"[1]; HT (hypertensive) cells, digitonin-permeabilized, read-out: EC50 of induced [35S]GTPγS binding",~5 µM
same,"concentration required for the same [35S]GTPγS binding to NT cells, relative to HT cells",[1]; NT (normotensive) versus HT cells,10 times higher
same,rate constant of stimulated [35S]GTPγS binding,[1]; hypertensive state,0.01 s⁻¹
same,rate constant of stimulated [35S]GTPγS binding,[1]; normotensive state,0.005 s⁻¹
Nc1nc2c(ncn2[C@@H]2O[C@H](COP(=O)(O)OP(=O)(O)O)[C@@H](O)[C@H]2O)c(=O)[nH]1 [GDP],GDP concentration at which maximum mastoparan 7-stimulated [35S]GTPγS binding occurs,PTX-sensitive G proteins; membranes from hypertensives,about 0.2 μmol/l
same,GDP concentration required for maximum mastoparan 7-stimulated [35S]GTPγS binding,PTX-sensitive G proteins; membranes from normotensives,1 µmol/L
